Experimental data taken from patent US8420655B2, “Benzimidazole inhibitors of leukotriene production” (Boehringer Ingelheim International GmbH, priority 2009, dated 2013).

Biological target: T1, recombinant human FLAP protein (Homo sapiens, UniProt P20292)
T1 construct: made in house; host or cells: Sf9 insect cells (membrane fraction, 100,000 x g pellet)
T1 sequence (P20292 1-161): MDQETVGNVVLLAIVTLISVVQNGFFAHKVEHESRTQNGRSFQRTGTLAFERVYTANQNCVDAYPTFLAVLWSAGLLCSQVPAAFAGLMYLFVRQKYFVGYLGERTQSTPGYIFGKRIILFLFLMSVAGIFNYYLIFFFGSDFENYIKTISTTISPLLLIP
Test: FLAP binding assay, displacement of iodinated (125I) FLAP inhibitor, Scintillation Proximity Assay format
Conditions: [125I]L-691,831 probe, membrane protein from sf9 cells; read-out: hFLAP binding IC50
Experimental: Compounds are assessed for the ability to bind to FLAP in a binding assay that measures compound-specific displacement of an iodinated (^125I) FLAP inhibitor via a Scintillation Proximity Assay format (adapted from S. Charleson et al., Mol. Pharmacol., 1992, 41, 873-879).
Cell pellets produced from sf9 insect cells expressing recombinant human FLAP protein are resuspended in buffer A [15 mM Tris-HCl (pH 7.5), 2 mM MgCl2, 0.3 mM EDTA, 1 mM PMSF]. The cells are lysed with a Dounce homogenizer and the material is centrifuged at 10,000×g for 10 minutes. The supernatant is then collected and centrifuged at 100,000×g for 60 minutes. To prepare membrane protein for an assay, an aliquot of the 100,000×g pellet is resuspended in 1 ml of buffer A, Dounce homogenized, and finally subjected to polytron mixing (30 seconds). Membrane protein (25 μl, 5 μg) is mixed with WGA SPA beads (Amersham) and stirred for 1 h. To an assay plate (Perkin Elmer FlexiPlate) is added 25 μl of test compound prepared in Binding buffer [100 mM Tris (pH 7.5), 140 mM NaCl, 5% glycerol, 2 mM EDTA, 0.5 mM TCEP, 0.05% Tween 20], 25 μl of [^125I]L-691,831 (an iodinated analog of MK-591, Charleson et al. Mol. Pharmacol., 41, 873-879, 1992) and finally 50 μl of the bead/protein mixture. (final concentrations: beads, 200 μg/well; protein, 5 μg/well; [^125I] probe, 0 08 nM/well (17 nCi/well). The plates are shaken for 2 h before reading on a Microbeta plate reader. Non-specific binding is determined by the addition of 10 μM cold L-691,831 compound.

Q: For Cc1ncn(-c2ccc(C#N)cc2-c2nc3cc(-c4cnc(N)nc4)ccc3n2C(C)(C)C)n1 [3-[5-(2-Amino-pyrimidin-5-yl)-1-tert-butyl-1H-benzimidazol-2-yl]-4-(3-methyl-1,2,4-triazol-1-yl)-benzonitrile], which IC50 is on record?
A: 3 nM

Q: Cc1nc(C)n(-c2ccc(C#N)cc2-c2nc3cc(-c4cnc(N)nc4)ccc3n2C(C)(C)C)n1 [3-[5-(2-Amino-pyrimidin-5-yl)-1-tert-butyl-1H-benzoimidazol-2-yl]-4-(3,5-dimethyl-[1,2,4]triazol-1-yl)-benzonitrile] was tested. Which IC50 did it give?
A: 2.5 nM

Q: CC(C)(C)n1c(-c2cc(C#N)ccc2-n2cnc(Br)n2)nc2cc(-c3cnc(N)nc3)ccc21 [3-[5-(2-Amino-pyrimidin-5-yl)-1-tert-butyl-1H-benzoimidazol-2-yl]-4-(3-bromo-[1,2,4]triazol-1-yl)-benzonitrile] was tested. Which IC50 did it give?
A: 0.83 nM

Q: How did the IC50 turn out when Cc1ccn(-c2ccc(C#N)cc2-c2nc3cc(-c4cnc(N)nc4)ccc3n2C(C)(C)C)n1 [3-[5-(2-Amino-pyrimidin-5-yl)-1-tert-butyl-1H-benzoimidazol-2-yl]-4-(3-methyl-pyrazol-1-yl)-benzonitrile] was run?
A: 1.8 nM

Q: Which IC50 does the source give for Cc1ccnn1-c1ccc(C#N)cc1-c1nc2cc(-c3cnc(N)nc3)ccc2n1C(C)(C)C [3-[5-(2-Amino-pyrimidin-5-yl)-1-tert-butyl-1H-benzoimidazol-2-yl]-4-(5-methyl-pyrazol-1-yl)-benzonitrile] here?
A: 1.3 nM

Q: With COC(=O)c1ccc(-n2cncn2)c(-c2nc3cc(-c4cnc(N)nc4)ccc3n2C(C)(C)C)c1 [3-[5-(2-Amino-pyrimidin-5-yl)-1-tert-butyl-1H-benzoimidazol-2-yl]-4-[1,2,4]triazol-1-yl-benzoic acid methyl ester] as the compound, how does the IC50 read?
A: 2.7 nM

Q: CC(C)(C)n1c(-c2cc(C#N)ccc2-n2cnc(-c3ccccc3Cl)n2)nc2cc(-c3cnc(N)nc3)ccc21 [3-[5-(2-Amino-pyrimidin-5-yl)-1-tert-butyl-1H-benzoimidazol-2-yl]-4-[3-(2-chloro-phenyl)-[1,2,4]triazol-1-yl]-benzonitrile] was tested. Which IC50 did it give?
A: 4.4 nM

Q: With CNC(=O)c1ccc(-n2cncn2)c(-c2nc3cc(-c4cnc(N)nc4)ccc3n2C(C)(C)C)c1 [3-[5-(2-Amino-pyrimidin-5-yl)-1-tert-butyl-1H-benzoimidazol-2-yl]-N-methyl-4-[1,2,4]triazol-1-yl-benzamide] as the compound, how does the IC50 read?
A: 20 nM

Q: How did the IC50 turn out when CC(C)(COc1ccc(-n2cncn2)c(-c2nc3cc(-c4cnc(N)nc4)ccc3n2C(C)(C)C)c1)C(=O)O [3-{3-[5-(2-Amino-pyrimidin-5-yl)-1-tert-butyl-1H-benzimidazol-2-yl]-4-1,2,4-triazol-1-yl-phenoxy}-2,2-dimethyl-propionic acid] was run?
A: 5.9 nM

Q: For CCOC(=O)C(C)(C)COc1ccc(-c2nc3cc(-c4cnc(N)nc4)ccc3n2C(C)(C)C)c(-n2cncn2)c1 [3-{4-[5-(2-Amino-pyrimidin-5-yl)-1-tert-butyl-1H-benzoimidazol-2-yl]-3-[1,2,4]triazol-1-yl-phenoxy}-2,2-dimethyl-propionic acid ethyl ester], which IC50 is on record?
A: 2.7 nM

Q: CC(C)(COc1ccc(-c2nc3cc(-c4cnc(N)nc4)ccc3n2C(C)(C)C)c(-n2cncn2)c1)C(=O)O [3-{4-[5-(2-Amino-pyrimidin-5-yl)-1-tert-butyl-1H-benzoimidazol-2-yl]-3-[1,2,4]triazol-1-yl-phenoxy}-2,2-dimethyl-propionic acid] was tested. Which IC50 did it give?
A: 4 nM

Q: For COC(=O)c1cc(-c2ccc(-n3cncn3)c(-c3nc4cc(-c5cnc(N)nc5)ccc4n3C(C)(C)C)c2)cs1 [4-{3-[5-(2-Amino-pyrimidin-5-yl)-1-tert-butyl-1H-benzoimidazol-2-yl]-4-[1,2,4]triazol-1-yl-phenyl}-thiophene-2-carboxylic acid methyl ester], which IC50 is on record?
A: 5.2 nM

Q: Which IC50 does the source give for CC(C)(C)n1c(-c2cc(-c3csc(C(=O)O)c3)ccc2-n2cncn2)nc2cc(-c3cnc(N)nc3)ccc21 [4-{3-[5-(2-Amino-pyrimidin-5-yl)-1-tert-butyl-1H-benzoimidazol-2-yl]-4-[1,2,4]triazol-1-yl-phenyl}-thiophene-2-carboxylic acid] here?
A: 10.6 nM

Q: For COCCn1cnc(-c2ccccc2-c2nc3cc(-c4cnc(N)nc4)ccc3n2C(C)(C)C)n1 [5-(1-tert-Butyl-2-{2-[1-(2-methoxy-ethyl)-1H-[1,2,4]triazol-3-yl]-phenyl}-1H-benzoimidazol-5-yl)-pyrimidin-2-ylamine], which IC50 is on record?
A: 3.3 nM

Q: With C=Cc1ccc(-n2cncn2)c(-c2nc3cc(-c4cnc(N)nc4)ccc3n2C(C)(C)C)c1 [5-[1-tert-Butyl-2-(2-1,2,4-triazol-1-yl-5-vinyl-phenyl)-1H-benzimidazol-5-yl]-pyrimidin-2-ylamine] as the compound, how does the IC50 read?
A: 1.3 nM

Q: How did the IC50 turn out when CC(C)(C)n1c(-c2cccc(F)c2-n2cncn2)nc2cc(-c3cnc(N)nc3)ccc21 [5-[1-tert-Butyl-2-(3-fluoro-2-1,2,4-triazol-1-yl-phenyl)-1H-benzimidazol-5-yl]-pyrimidin-2-ylamine] was run?
A: 1.7 nM

Q: How did the IC50 turn out when CC(C)(C)n1c(-c2ccc(Cl)cc2-n2cncn2)nc2cc(-c3cnc(N)nc3)ccc21 [5-[1-tert-Butyl-2-(4-chloro-2-1,2,4-triazol-1-yl-phenyl)-1H-benzimidazol-5-yl]-pyrimidin-2-ylamine] was run?
A: 1.7 nM

Q: For COc1ccc(-c2nc3cc(-c4cnc(N)nc4)ccc3n2C(C)(C)C)c(-n2cncn2)c1 [5-[1-tert-Butyl-2-(4-methoxy-2-1,2,4-triazol-1-yl-phenyl)-1H-benzimidazol-5-yl]-pyrimidin-2-ylamine], which IC50 is on record?
A: 2.9 nM

Q: How did the IC50 turn out when CC(C)(C)n1c(-c2cc(Cl)ccc2-n2cncn2)nc2cc(-c3cnc(N)nc3)ccc21 [5-[1-tert-Butyl-2-(5-chloro-2-1,2,4-triazol-1-yl-phenyl)-1H-benzimidazol-5-yl]-pyrimidin-2-ylamine] was run?
A: 3 nM

Q: With CC(C)(C)n1c(-c2cc(Cl)ccc2-n2cccn2)nc2cc(-c3cnc(N)nc3)ccc21 [5-[1-tert-Butyl-2-(5-chloro-2-pyrazol-1-yl-phenyl)-1H-benzimidazol-5-yl]-pyrimidin-2-ylamine] as the compound, how does the IC50 read?
A: 1.3 nM

Q: For CCOCc1ccc(-n2cncn2)c(-c2nc3cc(-c4cnc(N)nc4)ccc3n2C(C)(C)C)c1 [5-[1-tert-Butyl-2-(5-ethoxymethyl-2-[1,2,4]triazol-1-yl-phenyl)-1H-benzoimidazol-5-yl]-pyrimidin-2-ylamine], which IC50 is on record?
A: 10 nM

Q: How did the IC50 turn out when CCc1ccc(-n2cncn2)c(-c2nc3cc(-c4cnc(N)nc4)ccc3n2C(C)(C)C)c1 [5-[1-tert-Butyl-2-(5-ethyl-2-1,2,4-triazol-1-yl-phenyl)-1H-benzimidazol-5-yl]-pyrimidin-2-ylamine] was run?
A: 2.4 nM

Q: Which IC50 does the source give for CC(C)(C)n1c(-c2cc(F)ccc2-n2cccn2)nc2cc(-c3cnc(N)nc3)ccc21 [5-[1-tert-Butyl-2-(5-fluoro-2-pyrazol-1-yl-phenyl)-1H-benzimidazol-5-yl]-pyrimidin-2-ylamine] here?
A: 1.7 nM

Q: For CC(C)(C)n1c(-c2cc(I)ccc2-n2cncn2)nc2cc(-c3cnc(N)nc3)ccc21 [5-[1-tert-Butyl-2-(5-iodo-2-1,2,4-triazol-1-yl-phenyl)-1H-benzimidazol-5-yl]-pyrimidin-2-ylamine], which IC50 is on record?
A: 2.7 nM

Q: With CC(C)Oc1ccc(-n2cncn2)c(-c2nc3cc(-c4cnc(N)nc4)ccc3n2C(C)(C)C)c1 [5-[1-tert-Butyl-2-(5-isopropoxy-2-1,2,4-triazol-1-yl-phenyl)-1H-benzimidazol-5-yl]-pyrimidin-2-ylamine] as the compound, how does the IC50 read?
A: 2.2 nM

Q: How did the IC50 turn out when CC(C)(C)n1c(-c2cc(S(C)(=O)=O)ccc2-n2cncn2)nc2cc(-c3cnc(N)nc3)ccc21 [5-[1-tert-Butyl-2-(5-methanesulfonyl-2-[1,2,4]triazol-1-yl-phenyl)-1H-benzoimidazol-5-yl]-pyrimidin-2-ylamine] was run?
A: 36.8 nM

Q: With COc1ccc(-n2cncn2)c(-c2nc3cc(-c4cnc(N)nc4)ccc3n2C(C)(C)C)c1 [5-[1-tert-Butyl-2-(5-methoxy-2-1,2,4-triazol-1-yl-phenyl)-1H-benzimidazol-5-yl]-pyrimidin-2-ylamine] as the compound, how does the IC50 read?
A: 1.7 nM

Q: How did the IC50 turn out when COc1ccc(-n2cccn2)c(-c2nc3cc(-c4cnc(N)nc4)ccc3n2C(C)(C)C)c1 [5-[1-tert-Butyl-2-(5-methoxy-2-pyrazol-1-yl-phenyl)-1H-benzimidazol-5-yl]-pyrimidin-2-ylamine] was run?
A: 5.2 nM

Q: COCc1ccc(-n2cncn2)c(-c2nc3cc(-c4cnc(N)nc4)ccc3n2C(C)(C)C)c1 [5-[1-tert-Butyl-2-(5-methoxymethyl-2-[1,2,4]triazol-1-yl-phenyl)-1H-benzoimidazol-5-yl]-pyrimidin-2-ylamine] was tested. Which IC50 did it give?
A: 13.9 nM

Q: For CC(C)(C)n1c(-c2ccccc2-c2ccno2)nc2cc(-c3cnc(N)nc3)ccc21 [5-[1-tert-butyl-2-(2-isoxazol-5-yl-phenyl)-1H-benzoimidazol-5-yl]-pyrimidin-2-ylamine], which IC50 is on record?
A: 2.4 nM
